Here are results for 8 compounds from publication PMC12787000 (Molecules, 2025).

In data set [1] the test system is A375 cells. The note with it: A375, 24 h, compared to untreated control.
Method: Changes in mitochondrial membrane potential were analyzed using the JC-1 Mitochondrial Membrane Potential Assay Kit (ab113850) according to the manufacturer’s instructions. […] After 24 h, cells were incubated with the JC-1 staining solution at 37 °C for 30 min in dark, washed with 1X Dilution Buffer, and analyzed by flow cytometry. […] The ratio of red J-aggregates to green JC-1 monomers was calculated to assess changes in mitochondrial membrane potential. Experiment was performed twice.
The test system of data set [2] is A375 cells. In words: Cellular uptake and subcellular distribution by LC-MS/MS. The note with it: A375, 25 μM, 24 h; for Compound accumulation normalized to telmisartan, Chromatin Bound: chromatin-bound nuclear fraction; for Compound accumulation normalized to telmisartan, Cytoplasm: cytoplasmic fraction; for Compound accumulation normalized to telmisartan, Cytoskeleton: cytoskeletal fraction; for Compound cell accumulation normalized to telmisartan, Whole Lysate: μmol compound per μg cell protein normalized to telmisartan. The format is cell-based. Here is the method: Cells were then trypsinized, washed with PBS and pelleted. For whole cell lysates, cell pellet was dissolved in RIPA buffer on ice. Fractions and whole cell lysates were stored at -80 °C until use. Protein concentration of lysates was determined with Pierce BCA Protein assay kit (Thermo Fisher #23225), and cell accumulation was calculated as μmol of compound per μg of cell protein and normalized to telmisartan. Concentrations of telmisartan and its derivatives were determined using liquid chromatography-tandem mass spectrometry (LC-MS/MS) method in positive HESI mode. The analysis was performed on UHPLC chromatograph […] (Thermo Fisher Scientific Inc., Madison, WI, USA), coupled to a triple quadrupole mass spectrometer TSQ Quantum Access MAX (Thermo Fisher Scientific Inc., Madison, WI, USA) with heated electrospray ionization (HESI) interface. The column was Zorbax Extend C18 (150 mm × 4.6 mm, 5 μm particle size). […] Experiment was repeated twice.

In data set [3] the test system is A375R cells. In words: MTT cell viability assay, vemurafenib-resistant A375R. The data set is classed as cell-based. The note with it: for IC50: A375R, MTT, 72 h. Here is the method:
(§1) A375, MRC-5, and HaCaT cell lines were obtained from the American Type Culture Collection (ATCC). 518A2 cell line was kindly provided by Dr. […]ć. All cell lines were cultured in RPMI 1640 medium supplemented with 2 g/L glucose, 10% fetal bovine serum (FBS), and antibiotics. […] Cell viability was assessed using the MTT assay (Sigma Aldrich, #M5655). […] After 72 h of incubation, absorbance was measured at 570 nm using a Multiskan SkyHigh microplate reader (Thermo Fisher Scientific, Helsinki, Finland). Values were corrected by subtracting the absorbance measured in wells containing cell-free medium with tested compounds.
A general note: Formazan colour is commonly taken as a measure of viable cells.

On the set-up of data set [4]: method as in PMID 11014323. The following applies: males, oral intake of 320 mg; cited from earlier work.
For data set [5], the target named is T1, AT1R (Homo sapiens, UniProt P30556).
T1 construct: endogenous in cells; host or cells: A375 melanoma cells (ATCC)
T1 sequence (P30556 1-359): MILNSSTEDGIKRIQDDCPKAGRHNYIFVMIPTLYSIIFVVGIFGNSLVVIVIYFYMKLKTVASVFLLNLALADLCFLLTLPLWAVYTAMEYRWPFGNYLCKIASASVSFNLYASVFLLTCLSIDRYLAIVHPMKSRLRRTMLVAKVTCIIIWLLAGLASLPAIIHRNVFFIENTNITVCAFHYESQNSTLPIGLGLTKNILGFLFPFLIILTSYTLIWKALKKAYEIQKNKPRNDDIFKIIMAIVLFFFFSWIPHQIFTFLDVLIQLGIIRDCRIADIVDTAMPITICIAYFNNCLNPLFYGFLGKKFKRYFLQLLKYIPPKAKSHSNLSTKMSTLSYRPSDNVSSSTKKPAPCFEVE
In words: Angiotensin II-induced Ca2+ release, Fluo-4 AM live-cell imaging. The format is cell-based. The note with it: 2 min; for Effect on AngII-induced Ca2+ increase (combination treatment): A375, 25 μM compound + 1 μM AngII. Here is the method:
Fluo-4 AM calcium indicator dye (F14201, Molecular Probes, Eugene, OR, USA) was used to observe Ca^2+ dynamics upon treatment, per manufacturer’s instructions. Briefly, 5000 A375 cells/well were seeded in 96-well optical bottom black cell culture plates (165305, Thermo Scientific). Fluo-4 AM stock solution in DMSO was mixed with equal volume of 20% Pluronic F-127 to assist in dispersion of AM esters before dilution into the loading medium. Twenty-four hours after seeding medium was removed, and cells were washed with HBBS without calcium and magnesium. Cells were stained in HBSS medium with 1.25 μM Fluo-4-AM for 30 min at 37 °C. After incubation, cells were washed and incubated in complete medium (10%FBS RPMI) to allow de-esterification for 30 min and then treated with 1 μM human Angiotensin II (A9525, Sigma Aldrich), 50 μM telmisartan, compounds 1, 3, and 8, or the combinations. Images were taken before addition of the treatment (0 min) and after 2 min of treatment on Zeiss PALM MicroBeam Axio Observer Z1 microscope (Carl Zeiss MicroImaging GmbH, Oberkochen, Germany) with Zeiss LD Plan-Neofluar 20×/0.4 Korr, ∞/0–1.5 mm lens and AxioVision SE64 Rel.4.9.1 software. Experiment was repeated three times. Integrated density of Fluo-4 fluorescence at 2 min of exposure to treatment was calculated with Image J, and normalized to the baseline fluorescence at time 0, in at least two random fields for each condition. Conditions were compared with one-way ANOVA and Tukey’s multiple comparisons test. p < 0.05 was considered statistically significant.

Data set [6] relates to 518A2 cells. In words: MTT cell viability assay, 518A2. The format is cell-based. The note with it: Homo sapiens; 518A2, MTT, 72 h. Here is the method: as §1
Data set [7] has as its system A375R cells. Description: Cell cycle distribution (PI, flow cytometry), A375R. The data set is classed as cell-based. The following applies: 25 µM, 72 h. The method, then:
(§2) A375 and A375R cells were seeded in 6-well plates at a density of 150,000 cells per well. On the following day, the cells were treated with 25 µM concentrations of compounds 1, 3, and 8, as well as telmisartan. After 72 h of incubation, the cells were harvested using trypsin, washed with phosphate-buffered saline (PBS), fixed in ethanol, and stored at −20 °C until analysis. Ethanol-fixed cells were treated with RNase A (1 mg/mL) and stained with propidium iodide (PI; 400 µg/mL). A total of 20,000 events were recorded per sample. Quantitative analysis of the cell cycle phase distribution was performed by flow cytometry using a FACSCalibur flow cytometer (Becton Dickinson, San Jose, CA, USA) and BD CellQuest Pro Version 5.2.1 software. Experiment was performed three times. Cells under treatment were compared to controls for each cell phase separately with one-way ANOVA and Dunnett’s multiple comparison tests. p < 0.05 was considered statistically significant.
On the technique in general: In flow cytometry, cells or beads pass a laser one at a time.

In data set [8] the test system is A375 cells. In words: MTT cell viability assay, A375. The following applies: 72 h; for IC50: Homo sapiens, A-375, A375, MTT. The format is cell-based. The method, then: as §1
For data set [9], the system named is MRC-5 (fetal fibroblasts). Description: MTT cell viability assay, MRC-5. The note with it: Homo sapiens, MRC5; MRC-5, MTT, 72 h. The data set is classed as cell-based. Here is the method: as §1
Data set [10] deals with HaCaT (human keratinocytes). In words: MTT cell viability assay, HaCaT. The format is cell-based. The following applies: 72 h. The method, then: as §1
For data set [11], the system named is A375 cells. In words: Mitochondrial morphology staining (MitoTracker Green FM). The format is cell-based. The note with it: A375, 25 μM, 24 h. Here is the method:
For imaging of the mitochondrial morphology in live cells, A375 cells seeded in 96-well optical bottom plates, as above, were treated for 24 h with 25 μM telmisartan, compound 1, 3, or 8. Treatment was washed away, and cells were stained with 500 nM MitoTracker Green FM (#9074, Cell signaling Technology, Danvers, MA, USA) in RPMI without serum for 30 min at 37 °C. Cells were imaged on Zeiss PALM MicroBeam Axio Observer Z1 microscope (Carl Zeiss MicroImaging GmbH, Oberkochen, Germany) with Zeiss LD Plan-Neofluar 20×/0.4 Korr, ∞/0–1.5 mm lens and AxioVision software. Mitochondrial shape was quantified in images from two biological experimental repeats, in three random fields for each condition, using Image J Analyze Particles function. Images were first processed to 8-bit binary, and circularity and aspect ratio (major axis/minor axis) were calculated and plotted with Prism 9 (GraphPad Software, LLC, Boston, MA, USA). Treatments were compared with untreated control using one-way ANOVA and Dunnett’s multiple comparisons test. p < 0.05 was considered statistically significant.

Data set [12] has as its system A375 cells. Description: Cell cycle distribution (PI, flow cytometry), A375. The format is cell-based. The following applies: A375, 25 µM, 72 h. Here is the method: as §2

The structures appear in SMILES notation.

Regarding `N#CC(C#N)=NNc1ccc(OC(F)(F)F)cc1` [FCCP, carbonyl cyanide 4-(trifluoromethoxy) phenylhydrazone], the “Ratio of red JC-1 aggregates to green JC-1 monomers” value in data set [1] was “lowest red/green ratio”.

For `CCCc1nc2c(C)cc(-c3nc4ccccc4n3C)cc2n1Cc1ccc(-c2ccccc2C(=O)O)cc1` [Telmisartan, reference compound], in data set [2], the “Compound accumulation normalized to telmisartan, Chromatin Bound” value stood at 1.00. Also, in data set [2], the “Compound accumulation normalized to telmisartan, Cytoplasm” value turned out to be 1.00. Moreover, the “Compound accumulation normalized to telmisartan, Cytoskeleton” value in data set [2] was determined as 1.00. Also, in data set [2] (membrane fraction), the “Accumulation in the membrane fraction” value is 0.197 µmol/L. Moreover, the “Compound accumulation normalized to telmisartan, Membrane” value in data set [2] (membrane fraction) was determined as 1.00. For the same compound, the “Compound cell accumulation normalized to telmisartan, Whole Lysate” value in data set [2] is on record as 1.00. The Selectivity in [3] (A375R versus normal cell lines (HaCaT, MRC-5), from IC50 values) was over 2.40. The IC50 in data set [3] came out at 29.2 ± 3.88 µM; in [6], 70.2 ± 3.83 µM; in data set [8], 59.1 ± 4.17 µM; in [9] it was 70.4 ± 5.61 µM; in [10] it was 148 ± 2.89 µM. Besides, in data set [4], the “Maximum steady-state plasma level” value is “around 20 μM”. In addition, the “Effect on AngII-induced Ca2+ increase (combination treatment)” value in data set [5] is listed as “prevented AngII-induced Ca^2+ increase”. Further, the Cell cycle distribution result in data set [7] is listed as “cell cycle profile comparable to that of the untreated control cells”.

As to `CCCc1nc2c(C)cc(-c3nc4ccccc4n3C)cc2n1Cc1ccc(-c2ccccc2C(=O)NC(Cc2cn(C)c3ccccc23)C(=O)O)cc1` (stereo not drawn) [compound 1, 2-{[4′-(1,7′-dimethyl-2′-propyl-1H-[2,5′]bibenzoimidazolyl-3′-ylmethyl)-biphenyl-2-carbonyl]-amino}-3-(1-methyl-1H-indol-3-yl)-propionic acid], the Mitochondrial network morphology result in [11] is “dramatic fission and clumping of mitochondria”. Further, the “Compound accumulation normalized to telmisartan, Chromatin Bound” value in data set [2] is listed as 36.22. For the same compound, the “Compound accumulation normalized to telmisartan, Cytoplasm” value in [2] was determined as 17.80. In addition, the “Compound accumulation normalized to telmisartan, Cytoskeleton” value in data set [2] amounted to 21.14. In data set [2] (membrane fraction), the “Compound accumulation normalized to telmisartan, Membrane” value is listed as 106.59. For the same compound, the “Compound cell accumulation normalized to telmisartan, Whole Lysate” value in [2] is on record as 12.08. For the same compound, the IC50 in data set [3] is 19.7 ± 8.87 µM; in [6], 23.5 ± 2.08 µM; in data set [8] it was 27.2 ± 0.63 µM; in [9], 26.7 ± 2.48 µM; in data set [10], 43.9 ± 3.42 µM. Besides, in data set [5], the “Effect on AngII-induced Ca2+ increase (combination treatment)” value was “did not prevent AngII-induced Ca^2+ increase”. In addition, the “Effect of compound alone on baseline Ca2+ signaling” value in data set [5] (A375, compound alone) is listed as “no significant changes in the baseline Ca^2+ signaling”. In addition, the Cell cycle distribution entry was “cell accumulation in the G0/G1 phase” in data set [7] and “increased accumulation of cells in the subG1 phase, albeit not statistically significant” in data set [12]. In addition, in data set [8] (A375, 25 μM, MTT), the “Effect on cell viability at single concentration” value is “significant reductions in cell viability”.

Consider `CCCc1nc2c(C)cc(-c3nc4ccccc4n3C)cc2n1Cc1ccc(-c2ccccc2C(=O)NC(Cc2cnc[nH]2)C(=O)O)cc1` (stereo not drawn) [compound 2, 2-{[4′-(1,7′-dimethyl-2′-propyl-1H-[2,5′]bibenzoimidazolyl-3′-ylmethyl)-biphenyl-2-carbonyl]-amino}-3-(3H-imidazol-4-yl)-propionic acid], for which the IC50 in [6] and in [8] was over 150 µM in each case.

Turning to `CCCc1nc2c(C)cc(-c3nc4ccccc4n3C)cc2n1Cc1ccc(-c2ccccc2C(=O)NC(C(=O)O)C(C)CC)cc1` (stereo not drawn) [compound 4, 2-{[4′-(1,7′-dimethyl-2′-propyl-1H-[2,5′]bibenzoimidazolyl-3′-ylmethyl)-biphenyl-2-carbonyl]-amino}-3-methyl-pentanoic acid], the figures for the IC50 in [6] and in data set [8] were 49 ± 3.17 µM and 43 ± 6.02 µM, respectively.

As for `CCCc1nc2c(C)cc(-c3nc4ccccc4n3C)cc2n1Cc1ccc(-c2ccccc2C(=O)NCC(=O)O)cc1` [compound 5, {[4′-(1,7′-dimethyl-2′-propyl-1H-[2,5′]bibenzoimidazolyl-3′-ylmethyl)-biphenyl-2-carbonyl]-amino}-acetic acid], the results for the IC50 in data set [6] and in data set [8] were 81.5 ± 6.28 µM and 86.22 ± 0.64 µM, respectively.

For `CCCc1nc2c(C)cc(-c3nc4ccccc4n3C)cc2n1Cc1ccc(-c2ccccc2C(=O)NCCCC(=O)O)cc1` [compound 6, 4-{[4′-(1,7′-dimethyl-2′-propyl-1H-[2,5′]bibenzoimidazolyl-3′-ylmethyl)-biphenyl-2-carbonyl]-amino}-butyric acid], the IC50 in data set [6] was determined as 89.2 ± 7.37 µM; in data set [8], 116 ± 6.94 µM.

On to `CCCc1nc2c(C)cc(-c3nc4ccccc4n3C)cc2n1Cc1ccc(-c2ccccc2C(=O)NC(CC(C)C)C(=O)O)cc1` (stereo not drawn) [compound 7, 2-{[4′-(1,7′-dimethyl-2′-propyl-1H-[2,5′]bibenzoimidazolyl-3′-ylmethyl)-biphenyl-2-carbonyl]-amino}-4-methyl-pentanoic acid], for which the results for the IC50 in data set [6] and in data set [8] were 39.7 ± 2.4 µM and 43.2 ± 3.55 µM, respectively.

A word on the IC50: it is the concentration that inhibits the measured activity by half.
